The source of these data is US9505744B2, “Solid state forms of vilazodone and vilazodone hydrochloride” (Assia Chemical Industries Ltd., priority 2011, dated 2016).

Format in all cases: physicochemical
Data set [1] is described as follows: Hausner ratio (tapped density / poured (bulk) density). The text has this:
These properties enable improve tablet density uniformity, weight variation, homogeneity, die fill characteristics, dimensional control and ejection characteristics.

A short description of data set [2]: Polymorphic stability on exposure to humidity. The settings on record: 100% relative humidity for at least a few moths. The source says:
Form Lambda doesn't convert to another polymorph when exposed to humidity.

Data set [3] is described as follows: Chemical and polymorphic stability on exposure to heating and mechanical pressure. The settings on record: when exposed to heating and to mechanical pressure; hydrochloride.
A further data set can be described thus: Wettability.
Data set [4] is described as follows: Compressibility: pressing samples with 1 ton for 60 minutes. The settings on record: for appearance of palettes after pressing: pressed with 1 ton for 60 minutes.

SMILES strings stand for the structures. Structures can show the parent of a compound that is named as a salt.

`N#Cc1ccc2[nH]cc(CCCCN3CCN(c4ccc5oc(C(N)=O)cc5c4)CC3)c2c1` [Form Lambda, Vilazodone hydrochloride]: the “Hausner ratio (ratio between tapped density and poured (bulk) density)” value in data set [1] is given as “favorable Hausner ratio”. In data set [2], the “conversion to another polymorph when exposed to humidity” value was “remains unchanged”.

`N#Cc1ccc2[nH]cc(CCCCN3CCN(c4ccc5oc(C(N)=O)cc5c4)CC3)c2c1` [Form Alpha, Vilazodone hydrochloride]: the “chemical and polymorphic stability” value in data set [3] was “chemically and polymorphically stable”. For the same compound, the degree of wettability entry in the data set “Wettability” was “enhanced degree of wettability”. Also, the compressibility result in data set [4] (API pressed into a palette) is “excellent compressibility”. The “appearance of palettes after pressing” value in data set [4] was “high structural order and shape without visible lamination on the surface or breaking of the palettes”.

Regarding `N#Cc1ccc2[nH]cc(CCCCN3CCN(c4ccc5oc(C(N)=O)cc5c4)CC3)c2c1` [Form Mu, Vilazodone hydrochloride], the “chemical and polymorphic stability” value in data set [3] was “high chemical and polymorphic stability”. Besides, in data set [4], the “appearance of palettes after pressing” value is “high structural order and shape without visible lamination on the surface or breaking of the palettes”.
